# Biological target: T1, ACE from crude rabbit lung acetone powder (Oryctolagus cuniculus, UniProt P12822)
# T1 construct: a preparation of ACE from crude rabbit lung acetone powder; from tissue; host or cells: rabbit lung (crude acetone powder)
# T1 sequence (P12822 34-1310): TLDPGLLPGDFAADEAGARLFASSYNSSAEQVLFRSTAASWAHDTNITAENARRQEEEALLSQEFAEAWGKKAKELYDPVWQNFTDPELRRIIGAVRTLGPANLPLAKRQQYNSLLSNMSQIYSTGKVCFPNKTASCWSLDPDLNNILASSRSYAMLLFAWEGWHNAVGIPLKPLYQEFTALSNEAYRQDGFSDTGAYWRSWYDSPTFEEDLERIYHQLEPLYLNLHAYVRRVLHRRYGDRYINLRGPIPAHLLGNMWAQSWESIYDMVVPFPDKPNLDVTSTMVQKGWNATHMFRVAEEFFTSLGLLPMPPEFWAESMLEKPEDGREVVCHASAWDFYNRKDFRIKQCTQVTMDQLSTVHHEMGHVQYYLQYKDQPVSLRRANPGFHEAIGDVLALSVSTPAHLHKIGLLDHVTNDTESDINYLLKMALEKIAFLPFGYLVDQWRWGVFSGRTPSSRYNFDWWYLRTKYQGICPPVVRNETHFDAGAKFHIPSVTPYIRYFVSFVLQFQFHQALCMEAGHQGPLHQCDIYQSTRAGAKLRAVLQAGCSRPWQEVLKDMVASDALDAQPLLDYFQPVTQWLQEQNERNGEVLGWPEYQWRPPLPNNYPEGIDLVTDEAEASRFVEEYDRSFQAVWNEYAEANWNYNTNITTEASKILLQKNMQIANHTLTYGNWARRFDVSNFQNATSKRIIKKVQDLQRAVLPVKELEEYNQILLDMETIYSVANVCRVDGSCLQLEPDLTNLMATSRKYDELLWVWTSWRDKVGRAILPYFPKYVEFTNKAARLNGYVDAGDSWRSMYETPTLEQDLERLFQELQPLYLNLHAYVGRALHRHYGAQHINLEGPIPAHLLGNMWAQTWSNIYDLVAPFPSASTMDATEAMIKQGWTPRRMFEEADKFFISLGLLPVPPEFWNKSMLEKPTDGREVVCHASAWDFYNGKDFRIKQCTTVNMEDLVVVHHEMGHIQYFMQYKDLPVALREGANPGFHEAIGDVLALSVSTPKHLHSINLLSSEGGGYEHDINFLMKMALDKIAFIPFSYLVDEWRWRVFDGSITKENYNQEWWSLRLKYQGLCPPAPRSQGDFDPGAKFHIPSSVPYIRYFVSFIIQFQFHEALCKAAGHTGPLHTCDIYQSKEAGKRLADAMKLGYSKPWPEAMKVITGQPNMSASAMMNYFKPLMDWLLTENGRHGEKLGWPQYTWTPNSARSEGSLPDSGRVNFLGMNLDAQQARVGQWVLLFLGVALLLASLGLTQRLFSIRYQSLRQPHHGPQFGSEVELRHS
# Test: in vitro ACE inhibition, hydrolysis of hippuryl-histidyl-leucine (HHL)
# Assay type: biochemical
# Conditions: substrate HHL; test compound studied at concentrations between 10^-9 to 10^-4 M
# Procedure: A number of in vitro and in vivo models are available to assess the biological activity of ACE inhibitors. (cf E. W. Petrillo, Jr. and M. A. Ondetti, Medical Res. Rev. 2, 1 (1982) and references therein). A particularly useful in vitro test employs a preparation of ACE from rabbit lung (either crude or purified) and uses the synthetic substrate (hippuryl-histidyl-leucine) as substrate (D. W. Cushman and H. S. Cheung, Biochem. Pharmacol., 20, 1637 (1971)). The substances to be tested are assessed for their ability to block the cleavage of the substrate and doses which cause 50% inhibition of the hydrolysis of the substrate are determined (ID50). In this and other studies, the incorporation of a literature standard (usually captopril) is helpful.
# The ACE inhibiting ability of the dipeptides of formula A is assessed in the in vitro model employing a preparation of ACE from crude rabbit lung acetone powder. Hippuryl-histidyl-leucine (HHL) is used as synthetic substrate to be cleaved (hydrolysed) by ACE (D. W. Cushman and H. S. Cheung, Biochem. Pharmacol., 20, 1637 (1971)). The following compounds of formula A, identified by Arabic numerals (referred to above), were assessed for their ability to block the hydrolysis of HHL to the C-terminal dipeptide His-Leu by the ACE preparation.
row,ID50 (dose which causes a 50% inhibition of the hydrolysis of HHL) [nM],SMILES
1,230,"CCN=C(NCC)NCCCCC(NC(CC)C(=O)N1CCC[C@H]1C(=O)O)C(=O)O (stereo partly drawn) [(12), N-[2-(N^G,N^G' -diethyl-L-homoargin-N^α -yl)butanoyl]-L-proline]"
2,180,"CCN=C(NCC)NCCCC[C@H](N[C@@H](C)C(=O)N1c2ccccc2C[C@H]1C(=O)O)C(=O)O [(10), (S)-N-[(S)-2-[N^G,N^G' -diethyl-(S)-homoargin-Nα-yl]propanoyl]-2-carboxy-2,3-dihydroindole]"
3,60,"CCN=C(NCC)NCCCC[C@H](N[C@@H](C)C(=O)N1Cc2ccccc2C[C@H]1C(=O)O)C(=O)O [(1), (S)-N-[(S)-2-[N^G,N^G' -diethyl-(S)-homoargin-Nα-yl]propionyl]-THIQ]"
4,65,"CCN=C(NCC)NCCCC[C@H](N[C@@H](CC)C(=O)N1Cc2ccccc2C[C@H]1C(=O)O)C(=O)O [(4), (S)-N-[(S)-2-[N^G,N^G' -diethyl-(S)-homoargin-Nα-yl]butanoyl]-THIQ]"
5,90,"C[C@H](N[C@@H](CCCCNC(=NCC(F)(F)F)NCC(F)(F)F)C(=O)O)C(=O)N1Cc2ccccc2C[C@H]1C(=O)O [(2), (S)-N-[(S)-2-[N^G,N^G' -bis(2,2,2-trifluoroethyl)-(S)-homoargin-Nα-yl]propionyl]-THIQ]"
6,280,"CCCCNC(=NC)NCCCCC(NC(C)C(=O)N1CCC[C@H]1C(=O)O)C(=O)O (stereo partly drawn) [(11), N-[2-(N^G -methyl-N^G' -n-butyl-L-homoargin-N^α -yl)propionyl]-L-proline]"
7,60,"CCCC(NC(CCCCNC(=NCC)NCC)C(=O)O)C(=O)N1CCC[C@H]1C(=O)O (stereo partly drawn) [(13), N-[2-(N^G,N^G' -diethyl-L-homoargin-N^α -yl)pentanoyl]-L-proline]"
8,220,"CCCCNC(=NC)NCCCC[C@H](N[C@@H](C)C(=O)N1Cc2ccccc2C[C@H]1C(=O)O)C(=O)O [(3), (S)-N-[(S)-2-[N^G -methyl-N^G' -n-butyl-(S)-homoargin-Nα-yl]propionyl]-THIQ]"

# — patent US4762821A, “N',N"-dialkylguanidino dipeptides” (Syntex (U.S.A.) Inc., priority 1986, dated 1988)
